The subject of the test is Histone H3 Citrullination in Neutrophils. Description: Citrullination ELISA (Citrullinated Histone H3) in calcium ionophore stimulated neutrophils. It is filed as cell-based. Conditions: Neutrophil; human neutrophils, 25 μM calcium ionophore, CitH3 ELISA. On the procedure:
Neutrophils were isolated according to the EasySep Direct Human Neutrophil Isolation Kit. In short, 50 mL of blood sample was drawn in a vacutainer containing K2EDTA from a healthy donor. To the whole blood, the isolation cocktail of 50 μL/mL was added. Then, in the next step 50 μL/mL of RapidSpheres™ was added to the sample. The sample was mixed evenly with the pipette and incubated for 10 minutes at room temperature. After incubation, PBS containing 1 mM EDTA was added at the ratio of 1:1 to the blood. Then the sample tube was incubated for 10 minutes. The enriched cell suspension was transferred into a new tube and RapidSpheres™ were added at 50 μL/mL to this suspension, mixed and incubated for 10 minutes at room temperature. At this step, the enriched cell suspension was carefully collected as a clear fraction into a fresh tube. Then, previous tube was replaced with the fresh tube containing enriched cell suspension. After the final separation, the clear solution of enriched cell suspension was carefully transferred to fresh tube which was ready to use for the experiment. These cells were then subjected to wash twice with plain RPMI 1640 media without Fetal Bovine Serum (FBS) and centrifuged at 1500 rpm for 5 minutes at room temperature. Cell counts were performed on each sample by Invitrogen cell counter. After the cell count, cell density was adjusted according to the experiment and re-suspended in complete RPMI media containing RPMI1640, 2% BSA and 1 mM CaCl2.
Freshly isolated neutrophils from human donor were seeded at a density of 0.5×10^6 cells in 400 μL cell suspension/well in a 24-well plate and cells were pre-incubated with the compound for 30 minutes by adding 50 μL of the 10× concentration to achieve the final 1× concentration of compound (10 μM, 1 μM and 0.1 μM). 1% DMSO was added in control wells. Then, the cells were stimulated in the presence and absence of calcium ionophore by adding 50 μL/well to achieve the final concentration of 25 μM. Upon incubation for 30 minutes with calcium ionophore, S7 nuclease was added to the wells and incubated for 10 minutes to disrupt NET DNA. Following incubation, 10 μL of 1 mM EDTA was added to inactivate nuclease. Cells were scrapped gently and transferred to the tubes, followed by centrifugation at 1500 rpm for 5 minutes. After centrifugation, supernatant was discarded, and 200 μL of lysis buffer containing PBS and 1× Protease inhibitor was added to the tubes. The obtained lysis was then subjected to mechanical shearing using Geno grinder by spin the plate at 2500 rpm for 10 minutes, followed by collection of supernatant and stored at −20° C. or immediately used for ELISA.
ELISA was performed as per Citrullinated Histone H3 ELISA Kit. All the buffer components from the kit were dissolved according to the manufactures protocol. ELISA Buffer Concentrate (10×) (Item No. 400060) and Wash Buffer Concentrate (400×) (Item No. 400060) along with polysorbate 20 (2000×) (Item No. 400035) was diluted to 1× with milliQ water. The standard for use in the ELISA was prepared as follows: • Obtain eight clean test tubes and label them, #1 through #8. Aliquot 4.9 mL of ELISA Buffer into tube #1. • Aliquot 500 μL of ELISA Buffer into the tubes #2-8. […] This tube is considered as blank, the lowest point on the standard curve.
100 μL of standards or diluted sample was added to the appropriate wells on the 96-well plate. Plates were covered with 96-well cover sheet and incubated for two hours at room temperature on an orbital shaker. The samples and standard were removed from the wells and washed four times with Wash Buffer. After the last wash, Anti-Histone H3 HRP Conjugate (Item No. 501441) (10×) stock solution was diluted in 1×ELISA buffer and 100 μL of the HRP Conjugate working solution was added to each well of the plate and incubated for one hour at room temperature on an orbital shaker. […]
(An ELISA detects its analyte on a solid surface through an enzyme-linked reagent.)

Structures can show the parent of a compound that is named as a salt. A value given as a limit tells only on which side of the number the result lay.

Broadly, the IC50 is the concentration that gives 50% inhibition. For `CCn1c(-c2nc3cc(C(=O)N4CCC[C@@H](N)C4)ccn3c2C)cc2ccccc21` [Compound 4, (R)-(3-aminopiperidin-1-yl)(2-(1-ethyl-1H-indol-2-yl)-3-methylimidazo[1,2-a]pyridin-7-yl)methanone], the IC50 was less than 100 nM.

Consider `Cc1c(-c2cc3ccccc3n2Cc2ccncc2)nc2cc(C(=O)N3CCC[C@@H](N)C3)ccn12` [Compound 10, (R)-(3-aminopiperidin-1-yl)(3-methyl-2-(1-(pyridin-4-ylmethyl)-1H-indol-2-yl)imidazo[1,2-a]pyridin-7-yl)methanone], for which the IC50 is less than 100 nM. For `Cc1c(-c2cc3ccccc3n2CC2CCOCC2)nc2cc(C(=O)N3CCC[C@@H](N)C3)ccn12` [Compound 11, (R)-(3-aminopiperidin-1-yl)(3-methyl-2-(1-((tetrahydro-2H-pyran-4-yl)methyl)-1H-indol-2-yl)imidazo[1,2-a]pyridin-7-yl)methanone] the value was 100 to 1000 nM; for `COc1ccc(Cn2c(-c3nc4cc(C(=O)N5CCC[C@@H](N)C5)ccn4c3C)cc3ccccc32)cc1` [Compound 12, (R)-(3-aminopiperidin-1-yl)(2-(1-(4-methoxybenzyl)-1H-indol-2-yl)-3-methylimidazo[1,2-a]pyridin-7-yl)methanone], less than 100 nM; for `Cc1c(-c2cc3ccccc3n2Cc2ccc(F)cc2)nc2cc(C(=O)N3CCC[C@@H](N)C3)ccn12` [Compound 13, (R)-(3-aminopiperidin-1-yl)(2-(1-(4-fluorobenzyl)-1H-indol-2-yl)-3-methylimidazo[1,2-a]pyridin-7-yl)methanone], 100 to 1000 nM. For the compound `Cc1c(-c2cc3ccccc3n2Cc2cccnc2)nc2cc(C(=O)N3CCC[C@@H](N)C3)ccn12` [Compound 15, (R)-(3-aminopiperidin-1-yl)(3-methyl-2-(1-(pyridin-3-ylmethyl)-1H-indol-2-yl)imidazo[1,2-a]pyridin-7-yl)methanone], the IC50 was less than 100 nM. For the compound `Cc1cc(C(=O)N2CCC[C@@H](N)C2)cc2nc(-c3cc4ccccc4n3CC3CC3)c(C)n12` [Compound 25, (R)-(3-aminopiperidin-1-yl)(2-(1-(cyclopropylmethyl)-1H-indol-2-yl)-3,5-dimethylimidazo[1,2-a]pyridin-7-yl)methanone], the IC50 is 100 to 1000 nM. With `Cc1cc(C(=O)N2CCC[C@@H](N)C2)cc2nc(-c3cc4ccccc4n3Cc3ccccc3)c(C)n12` [Compound 26, (R)-(3-aminopiperidin-1-yl)(2-(1-benzyl-1H-indol-2-yl)-3,5-dimethylimidazo[1,2-a]pyridin-7-yl)methanone], the 50% inhibitory concentration (IC50) was less than 100 nM. `Cc1cccc2cc(-c3nc4cc(C(=O)N5CCC[C@@H](N)C5)ccn4c3C)n(CC3CC3)c12` [Compound 30, (R)-(3-aminopiperidin-1-yl)(2-(1-(cyclopropylmethyl)-7-methyl-1H-indol-2-yl)-3-methylimidazo[1,2-a]pyridin-7-yl)methanone]: the IC50 fell in the range of 100 to 1000 nM. For `Cc1c(-c2cc3ccccc3n2Cc2ccoc2)nc2cc(C(=O)N3CCC[C@@H](N)C3)ccn12` [Compound 37, (R)-(3-aminopiperidin-1-yl)(2-(1-(furan-3-ylmethyl)-1H-indol-2-yl)-3-methylimidazo[1,2-a]pyridin-7-yl)methanone] the value was less than 100 nM. Next, `CCn1c(-c2nc3cc(C(=O)N4CCC[C@@H](N)C4)ccn3c2C)cc2cc(F)ccc21` [Compound 39, (R)-(3-aminopiperidin-1-yl)(2-(1-ethyl-5-fluoro-1H-indol-2-yl)-3-methylimidazo[1,2-a]pyridin-7-yl)methanone]: less than 100 nM; `Cc1csc(Cn2c(-c3nc4cc(C(=O)N5CCC[C@@H](N)C5)ccn4c3C)cc3ccccc32)n1` [Compound 41, (R)-(3-aminopiperidin-1-yl)(3-methyl-2-(1-((4-methylthiazol-2-yl)methyl)-1H-indol-2-yl)imidazo[1,2-a]pyridin-7-yl)methanone]: 100 to 1000 nM. Take `COc1cccc(Cn2c(-c3nc4cc(C(=O)N5CCC[C@@H](N)C5)ccn4c3C)cc3ccccc32)c1` [Compound 42, (R)-(3-aminopiperidin-1-yl)(2-(1-(3-methoxybenzyl)-1H-indol-2-yl)-3-methylimidazo[1,2-a]pyridin-7-yl)methanone]: the IC50 was less than 100 nM. Consider `Cc1c(-c2cc3cccc(Cl)c3n2CC2CC2)nc2cc(C(=O)N3CCC[C@@H](N)C3)ccn12` [Compound 44, (R)-(3-aminopiperidin-1-yl)(2-(7-chloro-1-(cyclopropylmethyl)-1H-indol-2-yl)-3-methylimidazo[1,2-a]pyridin-7-yl)methanone], for which the IC50 was less than 100 nM.

For the compound `Cc1c(-c2cc3ccccc3n2Cc2ccc(F)cc2)nc2cc(C(=S)N3CCC[C@@H](N)C3)ccn12` [Compound 45, (R)-(3-aminopiperidin-1-yl)(2-(1-(4-fluorobenzyl)-1H-indol-2-yl)-3-methylimidazo[1,2-a]pyridin-7-yl)methanethione], the IC50 was less than 100 nM. As for `Cc1ncc(Cn2c(-c3nc4cc(C(=O)N5CCC[C@@H](N)C5)ccn4c3C)cc3ccccc32)s1` [Compound 49, (R)-(3-aminopiperidin-1-yl)(3-methyl-2-(1-((2-methylthiazol-5-yl)methyl)-1H-indol-2-yl)imidazo[1,2-a]pyridin-7-yl)methanone], the IC50 was less than 100 nM. `COc1ccc2cc(-c3nc4cc(C(=O)N5CCC[C@@H](N)C5)ccn4c3C)n(Cc3cccnc3)c2c1` [Compound 51, (R)-(3-aminopiperidin-1-yl)(2-(6-methoxy-1-(pyridin-3-ylmethyl)-1H-indol-2-yl)-3-methylimidazo[1,2-a]pyridin-7-yl)methanone]: the IC50 is greater than 1000 nM. With `Cc1c(-c2cc3ccc(F)cc3n2CC2CC2)nc2cc(C(=O)N3CCC[C@@H](N)C3)ccn12` [Compound 52, (R)-(3-aminopiperidin-1-yl)(2-(1-(cyclopropylmethyl)-6-fluoro-1H-indol-2-yl)-3-methylimidazo[1,2-a]pyridin-7-yl)methanone trifluoroacetic acid salt], the IC50 fell in the range of 100 to 1000 nM. For the compound `COc1cccc(Cn2c(-c3nc4cc(C(=O)N5CCC[C@@H](N)C5)ccn4c3C)cc3cc(F)ccc32)c1` [Compound 53, (R)-(3-aminopiperidin-1-yl)(2-(5-fluoro-1-(3-methoxybenzyl)-1H-indol-2-yl)-3-methylimidazo[1,2-a]pyridin-7-yl)methanone], the IC50 fell in the range of 100 to 1000 nM. As for `Cc1c(-c2cc3ccc(F)cc3n2Cc2ccc(F)cc2)nc2cc(C(=O)N3CCC[C@@H](N)C3)ccn12` [Compound 54, (R)-(3-aminopiperidin-1-yl)(2-(6-fluoro-1-(4-fluorobenzyl)-1H-indol-2-yl)-3-methylimidazo[1,2-a]pyridin-7-yl)methanone], the IC50 was less than 100 nM. For the compound `Cc1c(-c2cc3ccccc3n2Cc2ccc(F)cc2)nc2cc(C(=O)N3CCC[C@@H](NC(=O)/C=C/CN(C)C)C3)ccn12` [Compound 56, (R,E)-4-(dimethylamino)-N-(1-(2-(1-(4-fluorobenzyl)-1H-indol-2-yl)-3-methylimidazo[1,2-a]pyridine-7-carbonyl)piperidin-3-yl)but-2-enamide], the IC50 is greater than 1000 nM. For `Cc1c(-c2cc3ccccc3n2Cc2cncnc2)nc2cc(C(=O)N3CCC[C@@H](N)C3)ccn12` [Compound 58, (R)-(3-aminopiperidin-1-yl)(3-methyl-2-(1-(pyrimidin-5-ylmethyl)-1H-indol-2-yl)imidazo[1,2-a]pyridin-7-yl)methanone trifluoroacetic acid salt] the value was greater than 1000 nM.

For the origin of these results see patent US20220047569A1, “METHOD AND COMPOUND FOR USE, IN TREATING AND/OR PREVENTING NETOSIS” (Jubilant EpiPad LLC, priority 2020, published 2022).
